The results in this text go back to patent publication US20050137220A1 (Pharmacia Corporation, priority 2003, published 2005).

This assay concerns the target MK-2 (Homo sapiens, UniProt P49137). Kind of assay: Determination of MK-2 IC50 (phosphorylation of HSP-peptide, anion exchange resin capture assay). It is filed as biochemical. To be noted: mixture of stereoisomers implied unless otherwise noted.
Where [1] appears, read: additional values are replicate IC50 experiments, read-out: MK-2 Avg. IC50.

Each structure is given as a SMILES string. Where “and” joins values, the source holds several entries; their conditions need not be identical. Identical values can stand only once. Counter-ions that a name gives are not always drawn. Like-named read-outs stand apart in the source and are kept apart here. Bounds are passed on as bounds.

Sequence of MK-2 (P49137 whole entry, species assumed): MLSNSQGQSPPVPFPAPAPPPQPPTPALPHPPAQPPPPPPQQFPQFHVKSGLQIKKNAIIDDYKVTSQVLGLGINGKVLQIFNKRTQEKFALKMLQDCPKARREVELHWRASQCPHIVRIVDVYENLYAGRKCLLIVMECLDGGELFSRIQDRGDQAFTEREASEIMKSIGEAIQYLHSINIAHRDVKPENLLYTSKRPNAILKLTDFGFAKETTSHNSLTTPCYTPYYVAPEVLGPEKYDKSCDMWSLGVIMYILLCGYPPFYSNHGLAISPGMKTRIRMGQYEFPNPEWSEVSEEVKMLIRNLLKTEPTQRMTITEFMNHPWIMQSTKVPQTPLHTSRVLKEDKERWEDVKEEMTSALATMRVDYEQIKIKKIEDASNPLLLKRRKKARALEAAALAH

A word on the IC50: it is the concentration that gives 50% inhibition. Consider `COc1ccc2c3c([nH]c2c1)C(=O)NCC3` [Example 264, 7-methoxy-2,3,4,9-tetrahydro-1H-beta-carbolin-1-one], for which, under setting [1], the IC50 was over 200 µM.
Same read-out and setting: the result for `O=C(O)C1NCCc2c1[nH]c1ccc(OCc3ccccn3)cc21` (stereo not drawn) [Example 101, 6-(pyridin-2-ylmethoxy)-2,3,4,9-tetrahydro-1H-beta-carboline-1-carboxylic acid hydrochloride] reads 39.9 µM; that for `Cc1cccc2c3c([nH]c12)C(=O)NCC3` [Example 258, 1H-Pyrido[3,4-b]indol-1-one,2,3,4,9-tetrahydro-8-methyl- or 8-methyl-2,3,4,9-tetrahydro-1H-beta-carbolin-1-one], over 200 µM.
On the same count and under the same terms, then `COC(=O)C1Cc2c([nH]c3ccccc23)C(C(=O)O)N1` (stereo not drawn) [Example 227, 3-(methoxycarbonyl)-2,3,4,9-tetrahydro-1H-beta-carboline-1-carboxylic acid], with over 200 µM; and `COc1ccc2[nH]c3c(c2c1)C1CCCCC1NC3C(=O)O` (stereo not shown) [Example 191, 10-methoxy-2,3,4,4a,5,6,7,11c-octahydro-1H-indolo[2,3-c]quinoline-6-carboxylic acid], with over 200 µM; and `COc1ccc2[nH]c3c(c2c1)CCNC3CC(=O)O` (stereo not drawn) [Example 165, (6-methoxy-2,3,4,9-tetrahydro-1H-beta-carbolin-1-yl)acetic acid hydrochloride], with over 200 µM.
The same measure, in the same setting: the result for `COC(=O)C1(C)NCCc2c1[nH]c1ccccc21` (stereo not drawn) [Example 235, methyl 1-methyl-2,3,4,9-tetrahydro-1H-beta-carboline-1-carboxylate] reads over 200 µM; that for `COc1ccc2[nH]c3c(c2c1)CC(Cc1ccccc1)NC3C(=O)O` (stereo not drawn) [Example 193, 3-benzyl-6-methoxy-2,3,4,9-tetrahydro-1H-beta-carboline-1-carboxylic acid], over 200 µM.
Regarding `COC(=O)c1ccc(COc2ccc3[nH]c4c(c3c2)CCNC4C(=O)O)cc1` (stereo not drawn) [Example 119, 6-{[4-(methoxycarbonyl)benzyl]oxy}-2,3,4,9-tetrahydro-1H-beta-carboline-1-carboxylic acid hydrochloride], under setting [1], the IC50 was found to be 71.9 µM.
On the same count and under the same terms, the result for `COC(=O)C1(CCl)NCCc2c1[nH]c1ccccc21` (stereo not drawn) [Example 164, methyl 1-(chloromethyl)-2,3,4,9-tetrahydro-1H-beta-carboline-1-carboxylate] reads over 200 µM; that for `C=CCN1CCc2c([nH]c3ccc(OC)cc23)C1C(=O)OC` (stereo not drawn) [Example 225, methyl 2-allyl-6-methoxy-2,3,4,9-tetrahydro-1H-beta-carboline-1-carboxylate], over 200 µM.
The same measure, in the same setting: then `Cc1ccc2[nH]c3c(c2c1)CCC/C3=N\O` [Example 123, 6-methyl-2,3,4,9-tetrahydro-1H-carbazol-1-one oxime], with 82.9 µM and 88.1 µM.
Same read-out and setting: the result for `COC(=O)CC1NCCc2c1[nH]c1ccc(OC)cc21` (stereo not drawn) [Example 167, methyl(6-methoxy-2,3,4,9-tetrahydro-1H-beta-carbolin-1-yl)acetate] reads over 200 µM; that for `CCOC(=O)CCCOc1ccc2[nH]c3c(c2c1)CCNC3C(=O)O` (stereo not drawn) [Example 130, 6-(4-ethoxy-4-oxobutoxy)-2,3,4,9-tetrahydro-1H-beta-carboline-1-carboxylic acid hydrochloride], 100 µM.
For the molecule `COc1ccc2[nH]c3c(c2c1)CCNC3=S` [Example 97, 6-methoxy-2,3,4,9-tetrahydro-1H-beta-carboline-1-thione], for the setting “MK-2 Avg. IC50, additional values are replicate IC50 experiments”, the IC50 was determined as 34.8 µM.
With `COc1ccc2[nH]c3c(c2c1)CCC(C)(C)C3=NO` (mixture of isomers) [Example 272, 6-methoxy-2,2-dimethyl-2,3,4,9-tetrahydro-1H-carbazol-1-one oxime], the IC50 under setting [1] is over 200 µM.
On the same count and under the same terms, the result for `COc1ccc2[nH]c3c(c2c1)CCN1COC(=O)C31` (stereo not shown) [Example 236, 8-methoxy-5,6,11,11b-tetrahydro-1H-[1,3]oxazolo[3′,4′:1,2]pyrido[3,4-b]indol-1-one] reads over 200 µM; that for `O=C1NCCc2c1[nH]c1c(Cl)ccc(Cl)c21` [Example 252, 5,8-dichloro-2,3,4,9-tetrahydro-1H-beta-carbolin-1-one], over 200 µM.
The same measure, in the same setting: the result for `COc1ccc2[nH]c3c(c2c1)CCNC3(CCC(=O)O)C(=O)O` (stereo not drawn) [Example 178, 1-(2-carboxyethyl)-6-methoxy-2,3,4,9-tetrahydro-1H-beta-carboline-1-carboxylic acid] reads over 200 µM.
Still for that read-out and setting: the result for `COc1ccc2[nH]c3c(c2c1)CC(CN(C)C)NC3C(=O)O` (stereo not drawn) [Example 187, 3-[(dimethylamino)methyl]-6-methoxy-2,3,4,9-tetrahydro-1H-beta-carboline-1-carboxylic acid trifluoroacetate] reads over 200 µM; that for `COC(=O)C1c2[nH]c3ccc(OC)cc3c2CCN1C(C)=O` (stereo not drawn) [Example 232, methyl 2-acetyl-6-methoxy-2,3,4,9-tetrahydro-1H-beta-carboline-1-carboxylate], over 200 µM; that for `CCCC1Cc2c([nH]c3ccc(OC)cc23)C(C(=O)O)N1` (stereo not drawn) [Example 190, 6-methoxy-3-propyl-2,3,4,9-tetrahydro-1H-beta-carboline-1-carboxylic acid], over 200 µM.
In the case of `COc1ccc2[nH]c3c(c2c1C)CCNC3C(=O)O` (stereo not drawn) [Example 183, 6-methoxy-5-methyl-2,3,4,9-tetrahydro-1H-beta-carboline-1-carboxylic acid hydrochloride], the IC50 under setting [1] was over 200 µM.
In the case of `COC(=O)c1cccc2[nH]c3c(c12)CCNC3C(=O)O` (stereo not drawn) [Example 142, 5-(methoxycarbonyl)-2,3,4,9-tetrahydro-1H-beta-carboline-1-carboxylic acid hydrochloride hydrate], under setting [1], the IC50 was 121 µM.
Consider `O=C1NCCc2c1[nH]c1ccc(C#Cc3ccccc3)cc21` [Example 248, 6-(phenylethynyl)-2,3,4,9-tetrahydro-1H-beta-carbolin-1-one], for which the IC50 under setting [1] is over 200 µM.
As for `COc1ccc2[nH]c3c(c2c1)CCNC3(CCCC(=O)O)C(=O)O` (stereo not drawn) [Example 179, 1-(3-carboxypropyl)-6-methoxy-2,3,4,9-tetrahydro-1H-beta-carboline-1-carboxylic acid], the IC50 under setting [1] is over 200 µM.
Still for that read-out and setting: then `COc1ccc2[nH]c3c(c2c1)CCNS3(=O)=O` [Example 153, 6-methoxy-2,3,4,9-tetrahydro[1,2]thiazino[6,5-b]indole 1,1-dioxide], with 155 µM.
On the same count and under the same terms, then `CN1CCc2c(n(-c3ccccc3)c3ccccc23)C1=O` [Example 257, 2-methyl-9-phenyl-2,3,4,9-tetrahydro-1H-beta-carbolin-1-one], with over 200 µM.
On to `COc1ccc2[nH]c3c(c2c1)CC(CCCO)NC3=O` (stereo not drawn) [Example 81, 3-(3-hydroxypropyl)-6-methoxy-2,3,4,9-tetrahydro-1H-beta-carbolin-1-one], for which the 50% inhibitory concentration (IC50) under setting [1] is 20.4 µM.
The same measure, in the same setting: then `O=C(O)C1NCCc2c1[nH]c1ccc(OCc3ccccc3Cl)cc21` (stereo not drawn) [Example 196, 6-[(2-chlorobenzyl)oxy]-2,3,4,9-tetrahydro-1H-beta-carboline-1-carboxylic acid hydrochloride], with over 200 µM; and `O=C1NCCc2c1[nH]c1ccccc21` [Example 260, 1H-Pyrido[3,4-b]indol-1-one,2,3,4,9-tetrahydro- or 2,3,4,9-tetrahydro-1H-beta-carbolin-1-one], with over 200 µM.
